Here are results for 34 molecules from patent publication US11065253B2, “Arylquinazolines” (Merck Patent GmbH, priority 2013, dated 2021).

pIC50: −log10 of the molar value. Where two headings read alike, the source gives them in different places.

The subject of this assay is phospho-serine 2056 DNA-PK in HCT116 cells. Nature of the assay: DNA-PK phosphorylation at serine 2056 (cellular), ELISA in bleomycin-treated HCT116 cells. The class given is cell-based. The following applies: read-out: IC50 pDNA-PK. The method, boiled down:
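Chemiluminescent ELISA read-out; phospho-specific signal normalised to total DNA-PKcs. Cells (HCT116) exposed 6 h to test compound plus 10 μM bleomycin to induce double-strand breaks; DMSO control served as blank.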
On the technique in general: An ELISA detects its analyte on a solid surface through an enzyme-linked reagent.

[1] abbreviates: Homo sapiens, HCT-116, cellular DNA-PK phosphorylation at serine 2056, HCT116 cells.
Setting [2] is: Homo sapiens, HCT-116, phospho-serine 2056 DNA-PK, bleomycin-treated HCT116 cells, class symbols A-D.
[3] abbreviates: cellular, HCT116 cells, 10 μM bleomycin, six hours.
The mark [4] stands for this setting: Homo sapiens, HCT-116, 6 h, cellular, HCT116 cells, 10 μM bleomycin, six hours.
Setting [5] is: cellular DNA-PK phosphorylation at serine 2056, HCT116 cells.
The mark [6] stands for this setting: Homo sapiens, HCT-116, phospho-serine 2056 DNA-PK, bleomycin-treated HCT116 cells.
Setting [7] is: phospho-serine 2056 DNA-PK, bleomycin-treated HCT116 cells, class symbols A-D.

For orientation: pIC50 means the IC50 on a negative log10 scale, so that one unit is a factor of ten. Turning to `OC(c1cc(-c2ncnc3cc(N4CCOCC4)ccc23)ccc1Cl)c1nccn2ccnc12` (stereo not shown) [Example 369, [2-Chloro-5-(7-morpholin-4-yl-quinazolin-4-yl)-phenyl]imidazo-[1,2-a]pyrazin-8-yl-methanol], under setting [1], the pIC50 is 5.00 to 5.30.
For the molecule `O=C1CCCN1c1nccnc1C(O)c1ccc(F)c(-c2ncnc3cc(N4CCOCC4)ccc23)c1` (stereo not shown) [Example 425, 1-(3-{[4-Fluoro-3-(7-morpholin-4-yl-quinazolin-4-yl)-phenyl]hydroxy-methyl}pyrazin-2-yl)-pyrrolidin-2-one], the pIC50 under setting [1] was 4.52 to 5.00.
On to `COc1ccc(C(C)(O)c2cc(-c3ncnc4cc(N5CCOCC5)ccc34)c(F)cc2Cl)nn1` (stereo not shown) [Example 125, 1-[2-Chloro-4-fluoro-5-(7-morpholin-4-yl-quinazolin-4-yl)-phenyl]-1-(6-methoxy-pyridazin-3-yl)-ethanol], for which, under setting [2], the pIC50 is 4.52 to 5.00.
For the molecule `COc1nccnc1C(O)c1ccc(F)c(-c2ncnc3cc(N4CCOCC4)ccc23)c1` (stereo not shown) [Example 38, [4-Fluoro-3-(7-morpholin-4-yl-quinazolin-4-yl)phenyl]-(3-methoxy-pyrazin-2-yl)methanol], the pIC50 under setting [3] was greater than 6.30.
For the molecule `OC(c1ccc(F)c(-c2ncnc3cc(N4CCOCC4)ccc23)c1)c1ncnc2ccsc12` (stereo not shown) [Example 438, [4-Fluoro-3-(7-morpholin-4-yl-quinazolin-4-yl)-phenyl]thieno[3,2-d}-pyrimidin-4-yl-methanol], under setting [1], the pIC50 is greater than 6.30.
In the case of `COc1ccc([C@@H](O)c2ccc(F)c(-c3ncnc4cc(N5CCOCC5)ccc34)c2)nn1` [Example 72, (S)-[4-Fluoro-3-(7-morpholin-4-yl-quinazolin-4-yl)phenyl]-(6-methoxypyridazin-3-yl)methanol], the pIC50 under setting [4] is 5.30 to 6.30.
As to `Cn1c(C(O)c2cc(-c3ncnc4cc(N5CCOCC5)ccc34)ccc2Cl)cccc1=O` (stereo not shown) [Example 400, 6-{[2-Chloro-5-(7-morpholin-4-yl-quinazolin-4-yl)-phenyl]hydroxy-methyl}-1-methyl-1H-pyridin-2-one], under setting [1], the pIC50 is greater than 6.30.
In the case of `N#CCOc1ccc(C(O)c2cc(-c3ncnc4cc(N5CCOCC5)ccc34)c(F)cc2Cl)nn1` (stereo not shown) [Example 119, (6-{[2-Chloro-4-fluoro-5-(7-morpholin-4-yl-quinazolin-4-yl)-phenyl]hydroxy-methyl}pyridazin-3-yl-oxy)acetonitrile], the pIC50 under setting [2] is greater than 6.30.
`OCCNc1nccnc1C(O)c1ccc(F)c(-c2ncnc3cc(N4CCOCC4)ccc23)c1` (stereo not shown) [Example 106, 2-(3-{[4-fluoro-3-(7-morpholin-4-yl-quinazolin-4-yl)-phenyl]hydroxy-methyl}pyrazin-2-yl-amino)ethanol]: the pIC50 under setting [2] was 5.00 to 5.30.
Consider `OC(c1cc(-c2ncnc3cc(N4CCOCC4)ccc23)c(F)cc1Cl)c1ncnc2ccoc12` (stereo not shown) [Example 441, [2-Chloro-4-fluoro-5-(7-morpholin-4-yl-quinazolin-4-yl)-phenyl]furo[3,2-d}-pyrimidin-4-yl-methanol], for which the pIC50 under setting [5] was greater than 6.30.
Consider `Cc1ncc(C(O)c2ccc(F)c(-c3ncnc4cc(N5CCOCC5)ccc34)c2)nc1C` (stereo not shown) [Example 314, (5,6-Dimethyl-pyrazin-2-yl)-[4-fluoro-3-(7-morpholin-4-yl-quinazolin-4-yl)-phenyl]methanol], for which the pIC50 under setting [6] is 5.30 to 6.30.
For `OC(c1ccc(F)c(-c2ncnc3cc(N4CCOCC4)ccc23)c1)c1ncccc1C(F)(F)F` (stereo not shown) [Example 80, [4-Fluoro-3-(7-morpholin-4-yl-quinazolin-4-yl)-phenyl]-(3-trifluoro-methylpyridin-2-yl)-methanol], under setting [4], the pIC50 is 5.30 to 6.30.
Turning to `COc1nccnc1C(O)c1cc(-c2ncnc3cc(N4CCOCC4)ccc23)c(F)cc1F` (stereo not shown) [Example 453], the pIC50 under setting [1] is greater than 6.30.
As to `Cc1cnc(C(C(N)=O)c2ccc(F)c(-c3ncnc4cc(N5CCOCC5)ccc34)c2)c(C)n1` (stereo not shown) [Example 318, 2-(3,5-Dimethyl-pyrazin-2-yl)-2-[4-fluoro-3-(7-morpholin-4-yl-quinazolin-4-yl)-phenyl]acetamide], under setting [6], the pIC50 was 4.52 to 5.00.
Still for that read-out and setting: next, `Cc1cnc(C(O)c2ccc(F)c(-c3ncnc4cc(N5CCOCC5)ccc34)c2)c(C)n1` (stereo not shown) [Example 354, (3,5-Dimethyl-pyrazin-2-yl)-[4-fluoro-3-(7-morpholin-4-yl-quinazolin-4-yl)-phenyl]methanol]: greater than 6.30.
As to `COc1ccc(C(O)c2cc(-c3ncnc4cc(N5CCOCC5)ccc34)ccc2F)nn1` (stereo not shown) [Example 357, [2-Fluoro-5-(7-morpholin-4-yl-quinazolin-4-yl)-phenyl]-(6-methoxy-pyridazin-3-yl)-methanol], the pIC50 under setting [6] is 5.30 to 6.30.
For `COc1nnc(Cl)cc1C(O)c1ccc(F)c(-c2ncnc3cc(N4CCOCC4)ccc23)c1` (stereo not shown) [Example 9], under setting [3], the pIC50 was greater than 6.30.
Regarding `COc1nccnc1C(C(N)=O)c1cc(-c2ncnc3cc(N4CCOCC4)ccc23)c(F)cc1Cl` (stereo not shown) [Example 320, 2-[2-Chloro-4-fluoro-5-(7-morpholin-4-yl-quinazolin-4-yl)-phenyl]-2-(3-methoxy-pyrazin-2-yl)acetamide], the pIC50 under setting [6] is 5.30 to 6.30.
In the case of `OC(c1cc(F)c(F)c(-c2ncnc3cc(N4CCOCC4)ccc23)c1)c1nccs1` (stereo not shown) [Example 178, [3,4-Difluoro-5-(7-morpholin-4-yl-quinazolin-4-yl)-phenyl]thiazol-2-yl-methanol], under setting [7], the pIC50 was 5.30 to 6.30.
Consider `COc1nccnc1[C@@H](O)c1cc(-c2ncnc3cc(N4CCOCC4)ccc23)ccc1Cl` [Example 411, (S)-[2-Chloro-5-(7-morpholin-4-yl-quinazolin-4-yl)-phenyl]-(3-methoxy-pyrazin-2-yl)-methanol (Ena 1)], for which the pIC50 under setting [5] is 5.30 to 6.30.
For `OC(c1ccc(F)c(-c2ncnc3cc(N4CCOCC4)ccc23)c1)c1nccnc1Cl` (stereo not shown) [Example 54, (3-Chloro-pyrazin-2-yl)-[4-fluoro-3-(7-morpholin-4-yl-quinazolin-4-yl)phenyl]-methanol], under setting [4], the pIC50 was greater than 6.30.
Consider `Cc1cncc(C(O)c2ccc(F)c(-c3ncnc4cc(N5CCOCC5)ccc34)c2)n1` (stereo not shown) [Example 296, [4-Fluoro-3-(7-morpholin-4-yl-quinazolin-4-yl)-phenyl]-(6-methyl-pyrazin-2-yl)-methanol], for which the pIC50 under setting [6] is 5.00 to 5.30.
On to `OC(c1cc(-c2ncnc3cc(N4CCOCC4)ccc23)c(F)cc1F)c1nnc2ccccn12` (stereo not shown) [Example 379, [2,4-Difluoro-5-(7-morpholin-4-yl-quinazolin-4-yl)-phenyl]-[1,2,4]-triazolo[4,3-a]pyridin-3-ylmethanol], for which, under setting [1], the pIC50 was 5.30 to 6.30.
With `COc1nnccc1C(C(N)=O)c1cc(-c2ncnc3cc(N4CCOCC4)ccc23)c(F)cc1Cl` (stereo not shown) [Example 307, 2-[2-Chloro-4-fluoro-5-(7-morpholin-4-yl-quinazolin-4-yl)-phenyl]-2-(3-methoxypyridazin-4-yl)acetamide], the pIC50 under setting [6] was 5.00 to 5.30.
Take `OC(c1ccc(F)c(-c2ncnc3cc(N4CCOCC4)sc23)c1)c1nccs1` (stereo not shown) [Example 146, [4-Fluoro-3-(6-morpholin-4-yl-thieno[3,2-d}-pyrimidin-4-yl)-phenyl]thiazol-2-yl-methanol]: the pIC50 under setting [7] is 5.30 to 6.30.
As for `COc1ccnnc1C(O)c1cc(-c2ncnc3cc(N4CCOCC4)ccc23)c(F)cc1Cl` (stereo not shown) [Example 3, [2-Chloro-4-fluoro-5-(7-morpholin-4-yl-quinazolin-4-yl)phenyl]-(4-methoxy-pyridazin-3-yl)methanol], the pIC50 under setting [4] is 5.30 to 6.30.
Turning to `Cn1nc(C(C(N)=O)c2cc(-c3ncnc4cc(N5CCOCC5)ccc34)c(F)cc2Cl)ccc1=O` (stereo not shown) [Example 311, 2-[2-Chloro-4-fluoro-5-(7-morpholin-4-yl-quinazolin-4-yl)-phenyl]-2-(1-methyl-6-oxo-1,6-dihydro-pyridazin-3-yl)-acetamide], under setting [6], the pIC50 was 4.52 to 5.00.
Consider `Cn1c(C(O)c2cc(-c3ncnc4cc(N5CCOCC5)ccc34)c(F)cc2Cl)cccc1=O` (stereo not shown) [Example 382, 6-{[2-Chloro-4-fluoro-5-(7-morpholin-4-yl-quinazolin-4-yl)-phenyl]hydroxy-methyl}-1-methyl-1H-pyridin-2-one (Ena 2)], for which the pIC50 under setting [1] was 5.30 to 6.30.
In the case of `OC(c1ccc(F)c(-c2ncnc3cc(N4CCOCC4)ccc23)c1)c1ncccc1Br` (stereo not shown) [Example 478, (3-bromo-pyridin-2-yl)-[4-fluoro-3-(7-morpholin-4-yl-quinazolin-4-yl)-phenyl]methanol], the pIC50 under setting [1] was greater than 6.30.
As for `OC(c1cccnn1)c1cc(-c2ncnc3cc(N4CCOCC4)ccc23)ccc1Cl` (stereo not shown) [Example 479, [2-Chloro-5-(7-morpholin-4-yl-quinazolin-4-yl)-phenyl]pyridazin-3-yl-methanol], under setting [5], the negative logarithm of the IC50 (pIC50) was greater than 6.30.
With `O=c1ccc(C(O)c2cc(-c3ncnc4cc(N5CCOCC5)ccc34)c(F)cc2Cl)n[nH]1` (stereo not shown) [Example 92, 3-[[2-Chloro-4-fluoro-5-(7-morpholino-quinazolin-4-yl)phenyl]-hydroxymethyl]-1H-pyridazin-6-one], the pIC50 under setting [4] is greater than 6.30.
Regarding `OC(c1ccc(Cl)nn1)c1cc(-c2ncnc3cc(N4CCOCC4)ccc23)c(F)cc1Cl` (stereo not shown) [Example 41, [2-Chloro-4-fluoro-5-(7-morpholin-4-yl-quinazolin-4-yl)phenyl]-(6-chloro-pyridazin-3-yl)methanol], the pIC50 under setting [4] is greater than 6.30.
As to `OC(c1cc(F)cc(-c2ncnc3cc(N4CCOCC4)ccc23)c1)c1nccs1` (stereo not shown) [Example 169, [3-Fluoro-5-(7-morpholin-4-yl-quinazolin-4-yl)-phenyl]thiazol-2-yl-methanol], the pIC50 under setting [2] was 4.52 to 5.00.
As to `OC(c1ccc2nccn2n1)c1cc(-c2ncnc3cc(N4CCOCC4)ccc23)c(F)cc1F` (stereo not shown) [Example 21, [2,4-Difluoro-5-(7-morpholin-4-yl-quinazolin-4-yl)phenyl]-imidazo[1,2-b]pyridazin-6-ylmethanol], the pIC50 under setting [3] was greater than 6.30.
